For 20 molecules, EC50, Emax and melting point results are on record in US20120115900A1, “SUBSTITUTED NAPHTHYRIDINE DERIVATIVES AND THEIR MEDICAL USE” (NEUROSEARCH A/S, priority 2009, published 2012).

For one series, the target named is T1, human Kv7.2+3 (Homo sapiens, UniProt O43525+O43526).
T1 construct: expressed in transfected cells; host or cells: HEK293
The series can be described thus: FLIPR-based characterization of Kv7.2+3 modulators (thallium (I) sensitive BTC fluorescence assay). The class given is cell-based. The note with it: HEK293 cells over-expressing human Kv7.2+3, mean of at least two test runs; for EC50: Tl+ influx, FLIPR, 50% of channel activity compared to retigabine control responses; for Emax: maximal response relative to the reference (retigabine) response, read-out: Efficacy. How it is done: FLIPR-Based Characterization of Kv7.2+3 Modulators
This experiment determines the ability of a test compound to modulate the activity of Kv7.2+3 channels heterologously expressed in human HEK293 cells. The ability is determined relative to retigabine. The activity is determined using a standard thallium (I) sensitive assay, e.g. using a fluorometric method in a Fluorescent Image Plate Reader (FLIPR) as described below in more detail.
Full concentration/response curves are generated and EC50 values are calculated based on max values. EC50 values (Effective Concentration) represent the concentration of the test substance, at which 50% of the channel activity is obtained when compared to retigabine control responses. Maximal response determined relative to the reference (retigabine) response is calculated.
Human HEK293 cells over-expressing human Kv7.2+3 are grown in culture medium (DMEM supplemented with 10% foetal bovine serum), in polystyrene culture flasks ([…]) in a humidified atmosphere of 5% CO2 in air, at 37° C. Cell confluence should be 80-90% on day of plating. Cells are rinsed with 4 ml of PBS (phosphate buffered saline) and incubated 2 min with 1 ml of Trypsin-EDTA. After addition of 25 ml of culture medium cells are re-suspended by trituration with a 25 ml pipette.
The cells are seeded at a density of ˜3×10^6 cells/ml (25 μl/well) in blackwalled, clear bottom, 384-well plates pre-treated with 0.01 g/l poly-D-lysin (20 μl/well for ≧30 min). Plated cells were allowed to proliferate for 24 h before loading with dye.
BTC-AM (50 mg, Invitrogen) is added 25.5 μl DMSO. The BTC-AM stock solution (2 mM) is diluted to a final concentration of 2 μM in Cl^− free assay buffer (in mM: 140 Na^+-gluconate, 2.5 K^+-gluconate, 6 Ca2^+-gluconate, 1 Mg^2+gluconate, 5 glucose, 10 HEPES, pH 7.3) containing 2 μM ouabain, 2 mM amaranth and 1 mM tartrazine.
The culture medium is aspirated from the wells, the cells are washed thrice in Cl^− free assay buffer, and 25 μl of the BTC-AM loading solution is added to each well. The cells are incubated at 37° C. for 60 min.
After the loading period, the TI^+-sensitive BTC fluorescence signal is measured over time using a FLIPR.
• Temperature: Room temp. • First addition: 12 μl test or control compound after 15 sec at a rate of 30 μl/sec and starting height of 20 μl • Second addition: 12 μl stimulus buffer (Cl^− free assay buffer supplemented with 1 mM Tl2SO4, 5 mM K2SO4 as well as the quenchers amaranth (2 mM) and tartrazine (1 mM)) is added after an additional 3 minutes at a rate of 30 μl/sec and starting height of 30 μl • Reading intervals: First sequence—3 sec×5, 2 sec×24 and 5 sec×25 Second sequence—1 sec×5, 2 sec×24 and 5 sec×36 Addition plates (compound plate and stimulus plate) are placed in positions 2 and 3, respectively. Cell plates are placed in position 1 and run using the “KCNQ (two additions)” program. FLIPR will then take the appropriate measurements in accordance with the interval settings above. Fluorescence obtained after stimulation is corrected for the mean basal fluorescence (in Cl^− free assay buffer).
Full concentration/response curves are generated and EC50 values (“Effective Concentration”; the concentration at which 50% of the channel activity is obtained when compared to retigabine control responses) are calculated based on peak values. Maximal response determined relative to the reference (retigabine) response is calculated. Data are given as mean of at least two test runs

As a reminder, the EC50 is the concentration at which the effect is half-maximal. Lower therefore signals an effect from little substance. Broadly, the melting point is the temperature, or range, at which the solid turns liquid.

Regarding `Cc1cc(N2CCc3ncccc3C2)nc(N2CCC(F)(F)CC2)c1NC(=O)c1cnsc1C` [Compound 1.19, N-[2-(4,4-difluoro-1-piperidyl)-6-(7,8-dihydro-5H-1,6-naphthyridin-6-yl)-4-methyl-3-pyridyl]-5-methyl-isothiazole-4-carboxamide], at human Kv7.2+3, the concentration giving a half-maximal response (EC50) came to 5.2 µM and the Emax came out at 71%.

`Cc1cc(N2CCc3ncccc3C2)nc(N2CCC(F)(F)CC2)c1NC(=O)CC1CC1` [Compound 1.13, 2-cyclopropyl-N-[2-(4,4-difluoro-1-piperidyl)-6-(7,8-dihydro-5H-1,6-naphthyridin-6-yl)-4-methyl-3-pyridyl]-acetamide]: on human Kv7.2+3, the EC50 worked out at 1.1 µM and the Emax is 109%.

For the molecule `Cc1cc(N2CCc3ncccc3C2)nc(N2CCC(F)(F)CC2)c1NC(=O)c1scnc1C` [Compound 1.10, N-[2-(4,4-difluoro-1-piperidyl)-6-(7,8-dihydro-5H-1,6-naphthyridin-6-yl)-4-methyl-3-pyridyl]-4-methyl-thiazole-5-carboxamide], at human Kv7.2+3, the EC50 came to 6.9 µM and the Emax was determined as 115%.

Consider `Cc1cc(N2CCc3ncccc3C2)nc(N2CCC(F)(F)CC2)c1NC(=O)c1ocnc1C` [Compound 1.12, N-[2-(4,4-difluoro-1-piperidyl)-6-(7,8-dihydro-5H-1,6-naphthyridin-6-yl)-4-methyl-3-pyridyl]-4-methyl-oxazole-5-carboxamide], for which, at human Kv7.2+3, the midpoint of the response, the EC50, lay at 0.065 µM and the Emax was 100%.

On to `Cc1cc(N2CCc3ncccc3C2)nc(N2CC[C@@H](F)C2)c1NC(=O)Cc1cc(F)cc(F)c1` [Compound 1.5, 2-(3,5-difluorophenyl)-N-[6-(7,8-dihydro-5H-1,6-naphthyridin-6-yl)-2-[(3R)-3-fluoropyrrolidin-1-yl]-4-methyl-3-pyridyl]-acetamide], for which, at human Kv7.2+3, the concentration giving a half-maximal response (EC50) was 0.19 µM and the Emax turned out to be 101%.

In the case of `Cc1cc(N2CCc3ncccc3C2)nc(N2CCC(F)(F)CC2)c1NC(=O)c1ncoc1C` [Compound 1.9, N-[2-(4,4-difluoro-1-piperidyl)-6-(7,8-dihydro-5H-1,6-naphthyridin-6-yl)-4-methyl-3-pyridyl]-5-methyl-oxazole-4-carboxamide], at human Kv7.2+3, the midpoint of the response, the EC50, lay at 0.05 µM and the Emax was found to be 105%.

Turning to `CCc1ocnc1C(=O)Nc1c(C)cc(N2CCc3ncccc3C2)nc1N1CCC(F)(F)CC1` [Compound 1.14, N-[2-(4,4-difluoro-1-piperidyl)-6-(7,8-dihydro-5H-1,6-naphthyridin-6-yl)-4-methyl-3-pyridyl]-5-ethyl-oxazole-4-carboxamide], at human Kv7.2+3, the EC50 is 0.02 µM and the Emax stood at 89%.

Take `Cc1cc(N2CCc3ncccc3C2)nc(N2CCC(F)(F)CC2)c1NC(=O)c1ncoc1C1CC1` [Compound 1.18, 5-cyclopropyl-N-[2-(4,4-difluoro-1-piperidyl)-6-(7,8-dihydro-5H-1,6-naphthyridin-6-yl)-4-methyl-3-pyridyl]oxazole-4-carboxamide]: at human Kv7.2+3, the midpoint of the response, the EC50, lay at 0.073 µM and the Emax is 34%.

Consider `CCOC(=O)Nc1c(C)cc(N2CCc3ncccc3C2)nc1N1CCC(F)(F)CC1` [Compound 1.20, ethyl N-[2-(4,4-difluoro-1-piperidyl)-6-(7,8-dihydro-5H-1,6-naphthyridin-6-yl)-4-methyl-3-pyridyl]-carbamate], for which, on human Kv7.2+3, it took 0.28 µM to reach a half-maximal effect (EC50) and the Emax stood at 100%.

For `Cc1cc(N2CCc3ncccc3C2)nc(N2CCCC2)c1NC(=O)c1cccc(F)c1` [Compound 1.3, N-[6-(7,8-Dihydro-5H-[1,6]naphthyridin-6-yl)-4-methyl-2-pyrrolidin-1-yl-pyridin-3-yl]-3-fluoro-benzamide], on human Kv7.2+3, the EC50 is 5 µM and the Emax worked out at 24%.

For the molecule `Cc1cc(N2CCc3ncccc3C2)nc(N2CCC(F)(F)CC2)c1NC(=O)c1nccn1C` [Compound 1.8, N-[2-(4,4-difluoro-1-piperidyl)-6-(7,8-dihydro-5H-1,6-naphthyridin-6-yl)-4-methyl-3-pyridyl]-1-methyl-imidazole-2-carboxamide], on human Kv7.2+3, the EC50 came out at 1.3 µM and the Emax came out at 114%.

For the molecule `Cc1cc(N2CCc3ncccc3C2)nc(N2CCC(F)(F)CC2)c1NC(=O)c1ncoc1-c1ccccc1` [Compound 1.17, N-[2-(4,4-difluoro-1-piperidyl)-6-(7,8-dihydro-5H-1,6-naphthyridin-6-yl)-4-methyl-3-pyridyl]-5-phenyl-oxazole-4-carboxamide], on human Kv7.2+3, the EC50 stood at 4.6 µM and the Emax came out at 90%.

In the case of `Cc1cc(N2CCc3ncccc3C2)nc(N2CCC(F)(F)CC2)c1NC(=O)Cc1cc(F)cc(F)c1` [Compound 1.7, 2-(3,5-difluorophenyl)-N-[2-(4,4-difluoro-1-piperidyl)-6-(7,8-dihydro-5H-1,6-naphthyridin-6-yl)-4-methyl-3-pyridyl]-acetamide], on human Kv7.2+3, the EC50 is 0.22 µM and the Emax worked out at 104%.

As for `Cc1cc(N2CCc3ncccc3C2)nc(N2CCCC2)c1NC(=O)CC(C)(C)C` [Compound 1.2, N-[6-(7,8-Dihydro-5H-[1,6]naphthyridin-6-yl)-4-methyl-2-pyrrolidin-1-yl-pyridin-3-yl]-3,3-dimethyl-butyramide], on human Kv7.2+3, the half-maximal effective concentration (EC50) came out at 1.2 µM and the Emax is 121%.

For the molecule `Cc1cc(N2CCc3ncccc3C2)nc(N2CCC(F)(F)CC2)c1NC(=O)c1conc1C` [Compound 1.11, N-[2-(4,4-difluoro-1-piperidyl)-6-(7,8-dihydro-5H-1,6-naphthyridin-6-yl)-4-methyl-3-pyridyl]-3-methyl-isoxazole-4-carboxamide], at human Kv7.2+3, it took 1.2 µM to reach a half-maximal effect (EC50) and the Emax was determined as 115%.

Turning to `Cc1nc(C(=O)Nc2c(C)cc(N3CCc4ncccc4C3)nc2N2CCC(F)(F)CC2)c(C)o1` [Compound 1.16, N-[2-(4,4-difluoro-1-piperidyl)-6-(7,8-dihydro-5H-1,6-naphthyridin-6-yl)-4-methyl-3-pyridyl]-2,5-dimethyl-oxazole-4-carboxamide], at human Kv7.2+3, the EC50 worked out at 5.4 µM and the Emax was 116%.

With `Cc1ccoc1C(=O)Nc1c(C)cc(N2CCc3ncccc3C2)nc1N1CC[C@@H](F)C1` [Compound 1.4, N-[6-(7,8-dihydro-5H-1,6-naphthyridin-6-yl)-2-[(3R)-3-fluoropyrrolidin-1-yl]-4-methyl-3-pyridyl]-3-methyl-furan-2-carboxamide], at human Kv7.2+3, the midpoint of the response, the EC50, lay at 0.085 µM and the Emax is 101%.

Turning to `Cc1cccnc1C(=O)Nc1c(C)cc(N2CCc3ncccc3C2)nc1N1CCC(F)(F)CC1` [Compound 1.15, N-[2-(4,4-difluoro-1-piperidyl)-6-(7,8-dihydro-5H-1,6-naphthyridin-6-yl)-4-methyl-3-pyridyl]-3-methyl-pyridine-2-carboxamide], on human Kv7.2+3, it took 2.9 µM to reach a half-maximal effect (EC50) and the Emax worked out at 28%.

For `Cc1ccoc1C(=O)Nc1c(C)cc(N2CCc3ncccc3C2)nc1N1CCC(F)(F)CC1` [Compound 1.6, N-[2-(4,4-difluoro-1-piperidyl)-6-(7,8-dihydro-5H-1,6-naphthyridin-6-yl)-4-methyl-3-pyridyl]-3-methyl-furan-2-carboxamide], on human Kv7.2+3, the EC50 was 0.019 µM and the Emax was found to be 81%.

Regarding `Cc1cc(N2CCc3ncccc3C2)nc(N2CCCC2)c1NC(=O)Cc1cc(F)cc(F)c1` [Compound 1.1, 2-(3,5-Difluoro-phenyl)-N-[6-(7,8-dihydro-5H-[1,6]naphthyridin-6-yl)-4-methyl-2-pyrrolidin-1-yl-pyridin-3-yl]-acetamide], the melting point was in the range of 203 to 206 °C. Besides, on human Kv7.2+3, the response was half-maximal at 0.067 µM (EC50) and the Emax turned out to be 96%.
